Experimental findings from patent publication US8586608B2, “Quinazoline derivatives and pharmaceutical compositions containing them” (Boehringer Ingelheim Pharma GmbH & Co. KG, priority 2000, dated 2013) are described below.

Molecules are shown by their SMILES.

Test system in the first series: not given
Test: not given
Conditions: not given
As for `CN(CC=CC(=O)Nc1cc2c(Nc3ccc(F)c(Cl)c3)ncnc2cc1OC1CCCC1)C1CC1` [1 (22), 4-[(3-chloro-4-fluorophenyl)amino]-6-{[4-(N-cyclopropyl-N-methylamino)-1-oxo-2-buten-1-yl]amino}-7-cyclopentyloxyquinazoline], the melting point (in general, the temperature, or range, at which the solid turns liquid) is 140 °C.
Still for that read-out and setting: the result for `CCN(C)CC=CC(=O)Nc1cc2c(Nc3ccc(F)c(Cl)c3)ncnc2cc1O[C@H]1CCOC1` [1 (33), 4-[(3-chloro-4-fluorophenyl)amino]-6-{[4-(N-ethyl-N-methylamino)-1-oxo-2-buten-1-yl]amino}-7-[(s)-(tetrahydrofuran-3-yl)oxy]quinazoline] reads 154 to 157 °C; that for `CN(CC=CC(=O)Nc1cc2c(Nc3ccc(F)c(Cl)c3)ncnc2cc1OCC1CC1)C[C@H]1CCCO1` [Example 1 (19), 4-[(3-chloro-4-fluorophenyl)amino]-6-[(4-{(R)—N-[(tetrahydrofuran-2-yl)methyl]-N-methylamino}-1-oxo-2-buten-1-yl)amino]-7-cyclopropylmethoxyquinazoline], 149 to 153 °C.
The same measure, in the same setting: in the case of `CN(CC=CC(=O)Nc1cc2c(Nc3ccc(F)c(Cl)c3)ncnc2cc1OCC1CC1)CC1CCOCC1` [Example 1 (24), 4-[(3-chloro-4-fluorophenyl)amino]-6-[(4-{N-[(tetrahydropyran-4-yl)methyl]-N-methylamino}-1-oxo-2-buten-1-yl)amino]-7-cyclopropylmethoxyquinazoline] it was 141 °C.
With `CN(CC=CC(=O)Nc1cc2c(Nc3ccc(F)c(Cl)c3)ncnc2cc1OC1CCCC1)C[C@H]1CCCO1` [Example 1 (26), 4-[(3-chloro-4-fluorophenyl)amino]-6-[(4-{(R)—N-[(tetrahydrofuran-2-yl)methyl]-N-methylamino}-1-oxo-2-buten-1-yl)amino]-7-cyclopentyloxyquinazoline], the melting point lay in the range of 117 to 121 °C.
The same measure, in the same setting: the result for `O=C(C=CCN1CCOCC1)Nc1cc2c(Nc3ccc(F)c(Cl)c3)ncnc2cc1OCC1CCOCC1` [Example 1 (29), 4-[(3-chloro-4-fluorophenyl)amino]-6-{[4-(morpholin-4-yl)-1-oxo-2-buten-1-yl]amino}-7-[(tetrahydropyran-4-yl)methoxy]quinazoline] reads 174 °C; that for `COCCN(CC=CC(=O)Nc1cc2c(Nc3ccc(F)c(Cl)c3)ncnc2cc1OCC1CCOCC1)CCOC` [Example 1 (30), 4-[(3-chloro-4-fluorophenyl)amino]-6-({4-[N,N-bis(2-methoxyethyl)amino]-1-oxo-2-buten-1-yl}amino)-7-[(tetrahydropyran-4-yl)methoxy]quinazoline], 100 to 102 °C; that for `CN(C)CC=CC(=O)Nc1cc2c(Nc3ccc(F)c(Cl)c3)ncnc2cc1OC[C@H]1CCCO1` [Example 1 (31), 4-[(3-chloro-4-fluorophenyl)amino]-6-{[4-(N,N-dimethylamino)-1-oxo-2-buten-1-yl]amino}-7-[(R)-(tetrahydrofuran-2-yl)methoxy]quinazoline], 110 to 112 °C.
Consider `O=C(C=CCN1CCOCC1)Nc1cc2c(Nc3ccc(F)c(Cl)c3)ncnc2cc1O[C@H]1CCOC1` [Example 1 (35), 4-[(3-chloro-4-fluorophenyl)amino]-6-{[4-(morpholin-4-yl)-1-oxo-2-buten-1-yl]amino}-7-[(s)-(tetrahydrofuran-3-yl)oxy]quinazoline], for which the melting point lay within 184 to 185 °C.

The target in the next series is T1, human EGF-receptor kinase (Homo sapiens, UniProt P00533).
T1 construct: GST; made in house; host or cells: Sf9 insect cells (baculovirus)
T1 sequence (P00533 688-1210): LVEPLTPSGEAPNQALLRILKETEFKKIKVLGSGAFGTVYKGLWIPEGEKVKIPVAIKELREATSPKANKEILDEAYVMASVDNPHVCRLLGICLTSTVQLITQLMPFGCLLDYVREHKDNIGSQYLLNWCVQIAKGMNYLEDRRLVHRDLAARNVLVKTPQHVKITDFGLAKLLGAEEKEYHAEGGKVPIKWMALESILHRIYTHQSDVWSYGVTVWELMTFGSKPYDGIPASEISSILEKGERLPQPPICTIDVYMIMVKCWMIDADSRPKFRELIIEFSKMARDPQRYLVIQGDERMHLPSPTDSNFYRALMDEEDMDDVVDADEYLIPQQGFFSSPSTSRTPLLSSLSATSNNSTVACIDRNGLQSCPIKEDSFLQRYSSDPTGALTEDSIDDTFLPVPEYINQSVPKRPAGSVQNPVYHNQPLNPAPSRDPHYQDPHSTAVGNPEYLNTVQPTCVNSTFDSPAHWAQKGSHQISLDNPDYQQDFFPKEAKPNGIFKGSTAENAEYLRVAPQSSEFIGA
Briefly: Inhibition of human EGF-receptor kinase (ELISA, bio-pEY substrate). As to conditions: cytoplasmic tyrosine kinase domain (Met664-Ala1186) as GST fusion protein; substrate pEY (4:1)/bio-pEY; 30 minutes at ambient temperature. Type of series: biochemical.
Description: To do this, the protein was expressed in Sf9 insect cells as a GST fusion protein using the Baculovirus expression system.
The enzyme activity was measured in the presence or absence of the test compounds in serial dilutions. The polymer pEY (4:1) produced by SIGMA was used as the substrate. Biotinylated pEY (bio-pEY) was added as the tracer substrate. Every 100 μl of reaction solution contained 10 μl of the inhibitor in 50% DMSO, 20 μl of the substrate solution (200 mM HEPES pH 7.4, 50 mM magnesium acetate, 2.5 mg/ml poly(EY), 5 μg/ml bio-pEY) and 20 μl of enzyme preparation. The enzyme reaction was started by the addition of 50 μl of a 100 μM ATP solution in 10 mM magnesium chloride. The dilution of the enzyme preparation was adjusted so that the incorporation of phosphate into the bio-pEY was linear in terms of time and quantity of enzyme. The enzyme preparation was diluted in 20 mM HEPES pH 7.4, 1 mM EDTA, 130 mM common salt, 0.05% Triton X-100, 1 mM DTT and 10% glycerol.
The enzyme assays were carried out at ambient temperature over a period of 30 minutes and were ended by the addition of 50 μl of a stopping solution (250 mM EDTA in 20 mM HEPES pH 7.4). 100 μl were placed on a streptavidin-coated microtiter plate and incubated for 60 minutes at ambient temperature. Then the plate was washed with 200 μl of a washing solution (50 mM Tris, 0.05% Tween 20). After the addition of 100 μl of a HRPO-labelled anti-PY antibody (PY20H Anti-PTyr:HRP produced by Transduction Laboratories, 250 ng/ml), it was incubated for 60 minutes. Then the microtiter plate was washed three times with 200 μl of washing solution. The samples were then combined with 100 μl of a TMB-peroxidase solution (A:B=1:1, Kirkegaard Perry Laboratories). After 10 minutes, the reaction was stopped. The extinction was measured at OD450nm with an ELISA reader. All data points were measured three times.
The data were matched by means of an iterative calculation using an analytical program for sigmoidal curves (Graph Pad Prism Version 3.0) with variable Hill pitch.
For the compound `CN(C)CC=CC(=O)Nc1cc2c(Nc3ccc(F)c(Cl)c3)ncnc2cc1OC1CCCC1` [1 (2), 4-[(3-chloro-4-fluorophenyl)amino]-6-{[4-(N,N-dimethylamino)-1-oxo-2-buten-1-yl]amino}-7-cyclopentyloxyquinazoline], the IC50 – broadly, the midpoint of a concentration-inhibition curve – was 600 pM.
The compound `COCCN(CC=CC(=O)Nc1cc2c(N[C@H](C)c3ccccc3)ncnc2cc1OCC1CC1)CCOC` [1 (3), 4-[(R)-(1-phenylethyl)amino]-6-{[4-(N,N-bis(2-methoxyethyl)amino)-1-oxo-2-buten-1-yl]amino}-7-cyclopropylmethoxyquinazoline] registered an IC50 of 4000 pM.
Turning to `COCCN(C)CC=CC(=O)Nc1cc2c(N[C@H](C)c3ccccc3)ncnc2cc1OCC1CC1` [1 (5), 4-[(R)-(1-phenylethyl)amino]-6-({4-[N-(2-methoxyethyl)-N-methylamino]-1-oxo-2-buten-1-yl}amino)-7-cyclopropylmethoxyquinazoline], inhibition was half-maximal at 3000 pM (IC50).
With `CN(CC=CC(=O)Nc1cc2c(Nc3ccc(F)c(Cl)c3)ncnc2cc1OC1CCCC1)C1CC1` [1 (22), 4-[(3-chloro-4-fluorophenyl)amino]-6-{[4-(N-cyclopropyl-N-methylamino)-1-oxo-2-buten-1-yl]amino}-7-cyclopentyloxyquinazoline], half-maximal inhibition (IC50) was put at 1000 pM.
Still for that read-out and setting: the result for `CN(C)CC=CC(=O)Nc1cc2c(Nc3ccc(F)c(Cl)c3)ncnc2cc1OC[C@@H]1CCCO1` [1 (32), 4-[(3-chloro-4-fluorophenyl)amino]-6-{[4-(N,N-dimethylamino)-1-oxo-2-buten-1-yl]amino}-7-[(s)-(tetrahydrofuran-2-yl)methoxy]quinazoline] reads 300 pM.
`CCN(C)CC=CC(=O)Nc1cc2c(Nc3ccc(F)c(Cl)c3)ncnc2cc1O[C@H]1CCOC1` [1 (33), 4-[(3-chloro-4-fluorophenyl)amino]-6-{[4-(N-ethyl-N-methylamino)-1-oxo-2-buten-1-yl]amino}-7-[(s)-(tetrahydrofuran-3-yl)oxy]quinazoline] had an IC50 of 500 pM.
As for `CC(C)N(C)CC=CC(=O)Nc1cc2c(Nc3ccc(F)c(Cl)c3)ncnc2cc1O[C@H]1CCOC1` [1 (34), 4-[(3-chloro-4-fluorophenyl)amino]-6-{[4-(N-isopropyl-N-methylamino)-1-oxo-2-buten-1-yl]amino}-7-[(s)-(tetrahydrofuran-3-yl)oxy]quinazoline], the IC50 was determined as 400 pM.
`COCCN(C)CC=CC(=O)Nc1cc2c(Nc3ccc(F)c(Cl)c3)ncnc2cc1OCC1CC1` [Example 1, [(3-chloro-4-fluorophenyl)amino]-6-({4-[N-(2-methoxyethyl)-N-methylamino]-1-oxo-2-buten-1-yl}amino)-7-cyclopropylmethoxyquinazoline] had an IC50 of 700 pM.
